# What was measured:
# Assay type in all cases: cell-based
# [1] = system: Hypocotyl explants of Brassica napus; experiment: Agrobacterium-mediated transformation of oilseed rape hypocotyl explants with pTHW142 using niacinamide before, during or after infection
# Experimental: Hypocotyl explants of Brassica napus were obtained as described in Example 3. Four groups of 200 hypocotyl explants each, were either not treated with niacinamide (indicated in table 4 as NONE), treated with 250 mg/l niacinamide for 1 day prior to infection with Agrobacterium (BEFORE), treated for 2 days during the infection with 250 mg/l niacinamide (DURING), or treated for 1 day after the Agrobacterium infection with 250 mg/l niacinamide (AFTER).
# All hypocotyl explants were infected with Agrobacterium tumefaciens strain C58C1Rif carrying T-DNA vector pTHW142 and a helper Ti-plasmid pMP90 (Koncz and Shell, 1986 supra)(or a derivative thereof). Plasmid pTHW142 is a vector carrying a T-DNA comprising the following chimeric genes: • PSSU-bar-3′g7 • p35S-uidA-3′35S • In which uidA is a DNA encoding b-glucuronidase (Jefferson et al., 1986, Proc. Natl. Acad. Sci. USA 83, 8447-8451) and 3′ 35S is the 3′ untranslated end of the cauliflower mosaic virus 35S transcript. The complete sequence of the T-DNA of pTHW142 is presented in SEQ ID No 5.
# After the Agrobacterium infection, hypocotyl explants were transferred to selection medium A5, and if appropriate to A5 medium containing 250 mg/ll niacinamide. The hypocotyl explants that were placed on medium containing niacinamide were transferred after 1 day to niacinamide-free selection medium A5. After 5 weeks on selective medium the number of transformed calli was scored. b-glucuronidase expression was verified in the obtained calli using established protocols (Jefferson et al., 1986).
# cultured cells = experiment: Optimal concentration of PARP inhibitor in the culture medium; conditions: i.e. about 2 mM; incubation not longer than 14 days
# Experimental: The concentration of the PARP inhibitor in the medium is also believed to have an effect on the inhibition of PARP, which varies depending on the nature of the cells (species, tissue explant, general culture conditions, etc.) However, within certain concentration ranges, the effect is minimal, especially when the cultured cells are not incubated for longer than 14 days. The optimal concentration range of PARP inhibitor in the medium may vary depending on the species from which the tissue, cell or cell culture is derived, but 250 mg/l (about 2 mM) is believed to be a suitable concentration for many purposes (e.g. for use with material derived from wheat). However, when nicotinamide is used in combination with plant material derived from rice, the concentration of nicotinamide should preferably be between 500 mg/l (about 4 mM) and 1000 mg/l (approx. 8 mM). On the other hand, when nicotinamide is used in combination with plant material derived from corn, the concentration of nicotinamide should preferably be 100 mg/l. […] The optimal concentration will depend on the nature of the specific PARP inhibitor used, particularly on its strength of inhibition (as measured by its Ki and/or by its percentage inhibition of PARP under standard conditions—Sims et al, supra). […]
# [2] = system: Hypocotyl explants of Brassica napus; experiment: Agrobacterium mediated transformation of oilseed rape hypocotyl explants with pTHW107, niacinamide for 4 days prior to infection
# Experimental: Hypocotyl explants of Brassica napus were obtained, cultured and transformed essentially as described by De Block et al, 1989, Plant Physiol. 914:694-701 except for the following modifications: • hypocotyl explants were precultured for 3 days on A2 medium (MS, 0.5 g/l Mes (pH 5.7), 1.2% glucose, 0.5% agarose, 1 mg/l 2,4-D, 0.25 mg/l naphthalene acetic acid (NAA), 1 mg/l 6-benzylaminopurine (BAP)), and then transferred to the A2 medium with or without niacinamide for another 4 days. • infection medium A3 was MS, 0.5 g/l Mes (pH 5.7), 1.2% glucose, 0.1 mg/l NAA, 0.75 mg/l BAP, 0.01 mg/l giberellinic acid (GA3) • selection medium A5 was 0.5 g/l Mes (pH 5.7), 1.2% glucose, 40 mg/l adenine.SO4, 0.5 g/l polyvinyl-polypyrrolidone (PVP), 0.5% agarose, 0.1 mg/l NAA, 0.75 mg/l BAP, 0.01 mg/l GA3, 250 mg/l carbenicillin, 250 mg/l triacillin, 5 mg/l AgNO3. • regeneration medium A6 was MS, 0.5 g/l Mes (pH 5.7), 2% sucrose, 40 mg/l adenine.SO4, 0.5 g/l PVP, 0.5% agarose, 0.0025 mg/l BAP, 250 mg/l triacillin. • healthy shoots were transferred to 1 liter vessels containing rooting medium which was either A8 or A9; A8 consists of 100-130 ml half concentrated MS, 1% sucrose (pH 5.0), 1 mg/l isobutyric acid (IBA), 100 mg/l triacillin added to 300 ml perlite (final pH 6.2); A9 consists of half concentrated MS, 1.5% sucrose (pH 5.8) solidified with agar (0.6%)
# Hypocotyl explants (with or without niacinamide treatment) were infected with Agrobacterium tumefaciens strain C58C1Rif carrying T-DNA vector pTHW107 and a helper Ti-plasmid pMP90 (Koncz and Schell, 1986, Mol.Gen.Genet. 204:383-396)(or a derivative thereof).
# Plasmid pTHW107 is a vector carrying a T-DNA comprising the following chimeric genes: • PTA29-barnase-3′g7 • PSSU-bar-3′nos • in which PTA29 is the promoter of the TA29 gene of tobacco (EP 344029) and PSSU is the promoter of the gene of Arabidopsis thaliana encoding the small subunit of Rubisco. The complete sequence of the T-DNA of pTHW107 is presented in SEQ ID No 1.
# Where required niacinamide (250 mg/l) was added to the media for the last 4 days prior to infection with Agrobacterium. […] Five plants regenerated from the calli obtained by transformation including niacinamide and five plants regenerated from the calli obtained by conventional transformation without niacinamide inclusion, were analyzed by Southern hybridization to determine the copy number of the transgenes, and were further analyzed for reproductive phenotype.
# [3] = 250 mg/l niacinamide for the last 4 days prior to infection
# [4] = Before 250, regenerated plants Id. No. 1-5
smiles,measurement,setting,value
NC(=O)c1cccnc1 [niacinamide],"Transformation frequency (transformed calli, PPT-resistant and GUS-positive, per 100 hypocotyl explants)","[1]; AFTER: 250 mg/l niacinamide for 1 day after the infection, scored after 5 weeks",29%
same,"Transformation frequency (transformed calli, PPT-resistant and GUS-positive, per 100 hypocotyl explants)","[1]; BEFORE: 250 mg/l niacinamide for 1 day prior to infection, scored after 5 weeks on selective medium",32%
same,Remarks (callus size and appearance),"[1]; BEFORE, large: callus diameter of approximately 5 mm","large, green calli"
same,"Transformation frequency (transformed calli, PPT-resistant and GUS-positive, per 100 hypocotyl explants)","[1]; DURING: 250 mg/l niacinamide for 2 days during the infection, scored after 5 weeks",16%
same,Remarks (callus size and appearance),"[1]; DURING, very small: callus diameter of approximately 1-2 mm","very small, light green calli"
same,transformation efficiency,[1]; niacinamide treatment either before or after the Agrobacterium infection,significantly increase
same,optimal concentration in the culture medium,cultured cells,approximately 250 mg/l
same,copy number in plants regenerated from transformed calli,[2]; [3],low copy number
same,variation in the expression profile of the transgenes,[2]; [3],less variation
same,Phenotype of the F1-progeny (vegetative/reproductive),"[2]; Before 250, pollinated with untransformed N90-740, phosphinotricin resistant F1-progeny",normal/sterile
same,Reproductive phenotype (male sterility),[2]; [4],sterile
same,Vegetative phenotype,[2]; [4],normal

# — patent US20050014268A1, “Genetic transformation using a PARP inhibitor” (Bayer BioScience NV, priority 1995, published 2005)
